The source of these data is PMC9856044 (Biomolecules, 2023).

The nature of series [1]: Solubility and aggregation (UV/Vis characterization). It counts as physicochemical. The conditions noted are these: sodium cacodylate buffer, I = 0.05 mol dm^−3, pH = 7.0; UV/Vis. The protocol:
The UV/vis spectra were recorded on a Varian Cary 100 Bio spectrophotometer (Agilent, Santa Clara, CA, USA), CD spectra on JASCO J815 spectrophotometer (ABL&E Handels GmbH, Wien, Austria) and fluorescence spectra on a Varian Cary Eclipse spectrophotometer (Agilent, Santa Clara, CA, USA) at 25 °C using appropriate 1 cm path quartz cuvettes.
Studied compounds, 1–6 were soluble (c = 8 × 10^−4 mol dm^−3) in DMSO. […] Therefore, the stock solution of 2 was prepared fresh before use. The experiments were done in aqueous buffer (sodium cacodylate buffer, I = 0.05 mol dm^−3; pH = 7.0).
However, the shape of UV/Vis spectra of cyanine 2 changed with increasing concentration (calibration experiment in Figure S2 in SI). In addition to the dominant maximum at 432 nm (which most likely corresponds to the monomer form of the dye), the absorption band at 413 nm becomes more intense (Figure S2 in SI). Presumably, it corresponds to the aggregated form (H-aggregate). Based on the existence of an absorption band at 432 nm, only the monomer dye form is visible at high temperature (95 °C) (Figure S8b in SI). However, after cooling the solution to 25 °C, an additional band appears at 413 nm, which corresponds to the aggregated dye form.

Series [2] deals with HeLa cells. The series can be described thus: MTT cytotoxicity assay, HeLa. The format is cell-based. The note with it: Homo sapiens, 72 h incubation, ± SD. The protocol: (§1) Human cervical carcinoma HeLa (GIBCO BRL, Invitrogen, Waltham, MA, USA), human melanoma MDA-MB-435S and human ovarian adenocarcinoma SK-OV-3 (ATCC-LGC Standards GmbH, Wesel, Germany) cell lines were purchased from indicated cell culture banks. Normal human skin fibroblasts were isolated from the upper arm of a donor at the Neurochemical Laboratory, Department of Chemistry and Biochemistry, School of Medicine, University of Zagreb. HeLa, MDA-MB-435S and fibroblasts were grown in Dulbecco’s Modified Eagle’s Medium (DMEM; Sigma-Aldrich, St. Louis, MI, USA) while the SK-OV-3 cell line was grown in McCoy’s 5A medium (Capricorn Scientific, Ebsdorfergrund, Germany). All media were supplemented with 10% fetal bovine serum (FBS; Sigma-Aldrich) and 50 I.U./mL penicillin and 50 μg/mL streptomycin. Cells were cultured in a humidified atmosphere of 5% CO2 at 37 °C and were sub-cultured every 3–4 days. HeLa, MDA-MB-435S, SK-OV-3 cells and fibroblasts were seeded in 96 well plates. Twenty-four hours later the cells were treated, in quadruplicate, with different concentrations of compounds (dissolved in DMSO, kept at 4 °C and protected from light). Following 72 h of incubation at 37 °C, the medium was aspired and modified 3-(4,5-dimethylthiazol-2-yl)-2,5-diphenyltetrazolium bromide (MTT) assay was used to determine the cytotoxic effect of the tested compounds. Three hours later, formazan crystals were dissolved in DMSO (0.17 mL/well), the plates were mechanically agitated for 20 min and the optical density at 600 nm was determined on a microtiter plate reader (Awareness Technology Inc., Palm City, FL, USA). The experiments were repeated three times.
(In general: Tetrazolium assays rely on reduction of a dye to a coloured formazan, in cell work by metabolically active cells.)

Series [3] deals with Tel22 (DNA, G4) AGGGTTAGGGTTAGGGTTAGGG
The series can be described thus: UV thermal melting, 260 nm. The conditions noted are these: Na+ (sodium cacodylate, I = 0.1 M); pH 7.0; Tel22 2 µM, r = 1.0 (compound 2 µM).

Series [4] concerns MDA-MB-435S cells. The series is described as follows: MTT cytotoxicity assay, MDA-MB-435S. The note with it: Homo sapiens, 72 h incubation, ± SD. The format is cell-based. The protocol: as §1
For series [5], the system named is SK-OV-3 cells. The series is described as follows: MTT cytotoxicity assay, SK-OV-3. The conditions noted are these: Homo sapiens, SK-OV-3, 72 h incubation, ± SD. The format is cell-based. As to the method: as §1
For series [6], the system named is Tel22 (DNA, G4) AGGGTTAGGGTTAGGGTTAGGG
The series is described as follows: fluorescence titration. The note with it: K+ (potassium phosphate, I = 0.1 M); pH 7.0, 25 °C; emission increase, no constant fitted.

For series [7], the system named is Tel22 G-quadruplex. The series is described as follows: Thermal melting of Tel22 in sodium cacodylate buffer. The format is binding, human. The conditions noted are these: Tel22, r = 1.0, sodium cacodylate buffer, pH = 7.0, I = 0.1 mol dm^−3; error ± 0.5 °C. As to the method:
(§2) Thermal melting curves for DNA, RNA and their complexes with studied compounds were determined as previously described by following the absorption change at 260 nm as a function of temperature. The absorbance of the ligands was subtracted from every curve and the absorbance scale was normalized. Tm values are the midpoints of the transition curves determined from the maximum of the first derivative and checked graphically by the tangent method. The ∆Tm values were calculated by subtracting Tm of the free nucleic acid from Tm of the complex. Every ∆Tm value here reported was the average of two measurements. The error in ∆Tm is ±0.5 °C. 5′-AGGG(TTAGGG)3–3′(Tel22) was obtained from IDT (Integrated DNA Technologies, Coralville, IA, USA). Tel22 was dissolved in 0.1 M either in sodium cacodylate or potassium phosphate buffer. The starting Tel22 oligonucleotide solution was first heated up to 95 °C for 10 min, then slowly cooled to 10 °C at the cooling rate of 1 °C/min to allow DNA oligonucleotide to adopt a G-quadruplex structure. The G-quadruplex structure was confirmed by thermal melting and CD spectra. The concentration of G quadruplex was expressed in terms of oligonucleotide structure. In fluorimetric titrations, aliquots of Tel 22 solution were added to the solution of ligands (c ~ 2 × 10^−7 M, in SI).

The test system of series [8] is Fibroblasts. The series can be described thus: MTT cytotoxicity assay, normal human skin fibroblasts. The format is cell-based. The conditions noted are these: Fibroblast, 72 h incubation, ± SD. The protocol:
as §1

The subject of series [9] is Tel22 (DNA, G4) AGGGTTAGGGTTAGGGTTAGGG
The series is described as follows: fluorescence titration (SPECFIT). The conditions noted are these: Na+ (sodium cacodylate, I = 0.1 M); pH 7.0, 25 °C; site 1 of 2.

Series [10] has as its target Tel22 (5′-AGGG(TTAGGG)3–3′) G-quadruplex. The series can be described thus: Fluorimetric titration with Tel22 in sodium cacodylate buffer (Na+ solution). It counts as binding, human. The conditions noted are these: Tel22, sodium cacodylate buffer, pH = 7.0, I = 0.1 mol dm^−3; SPECFIT fit of fluorescence titration. The protocol:
(§3) Materials. Polynucleotides were purchased as noted: poly A–poly U, calf thymus ctDNA, poly(dAdT)2 and poly(dGdC)2 (Sigma-Aldrich, St. Louis, MI, USA). Polynucleotides were dissolved in Na-cacodylate buffer, I = 0.05 mol dm^−3, pH = 7.0. The calf thymus ctDNA was additionally sonicated and filtered through a […]. Polynucleotide concentration was determined spectroscopically as the concentration of phosphates. Spectrophotometric titrations were performed at pH = 7.0 (I = 0.05 mol dm^−3, sodium cacodylate buffer) by adding aliquots of polynucleotide solution into the solution of the studied compound for fluorimetric experiments and CD experiments were done by adding aliquots of the compound stock solution into the solution of a polynucleotide. In fluorimetric experiments, an excitation wavelength of λexc = 425, 431, 423, 427, 406 and 407 nm, respectively, was used to avoid the inner filter effect caused due to increasing absorbance of the polynucleotide. Emission was collected in the range λem = 400–700 nm. Values for Ka obtained by processing titration data using the Scatchard equation [27], all have satisfactory correlation coefficients (≥0.98).
as §2
(§4) Binding constants (log Ka) and stoichiometry of complexes were calculated from the fluorimetric data using non-linear least-square program SPECFIT [46], in the concentration range that corresponded to 20–80% complex formed.

Series [11] has as its system ds-DNA and ds-RNA. The series is described as follows: Thermal melting of ds-DNA and ds-RNA. It counts as binding. The conditions noted are these: r [compound]/[nucleotide phosphate] = 0.1. The protocol: as §2
Binding abilities of 1–6 compounds were further explored by thermal melting experiments. […]

Series [12] relates to Tel22 G-quadruplex. The series is described as follows: Thermal melting of Tel22 in potassium phosphate buffer. The conditions noted are these: Tel22, r = 1.0, potassium phosphate buffer, pH = 7.0, I = 0.1 mol dm^−3; error ±0.5 °C. It counts as binding, human. As to the method: as §2
Series [13] concerns the target Tel22 (5′-AGGG(TTAGGG)3–3′) G-quadruplex. The series is described as follows: Fluorimetric titration with Tel22 in potassium phosphate buffer (K+ solution). The note with it: Tel22, K+ solution; no accurate fit possible. It counts as binding, human. The protocol: as §3, §2, §4

Structures are written as SMILES.

What is called IC50 is the concentration needed to halve the response being measured. As usually defined, the melting point is the temperature of the solid-liquid transition. With `C[n+]1c(C=C2Sc3ccccc3N2CCCS(=O)(=O)[O-])[se]c2ccccc21` [Compound 1, 3-(2-((3-methylbenzo[d][1,3]selenazol-3-ium-2-yl)methylene)benzo[d]thiazol-3(2H)-yl)propane-1-sulfonate], the melting point is greater than 300 °C. Also, the “Aggregation in aqueous buffer” value in series [1] is on record as “do not form aggregates”. Further, the half-inhibitory concentration (IC50) in [2] came out at 31.9 ± 1.14 µM. In series [3], the “∆Tm” value worked out at 0 °C. This compound displayed an IC50 in series [4] of 18.5 ± 1.23 µM. The IC50 in series [5] was found to be 32.8 ± 1.09 µM. In addition, the binding entry in [6] is reported as “yes”. Further, the “∆Tm” value in [7] stood at 0 °C. This compound displayed an IC50 in series [8] greater than 40 µM. In addition, in series [9], the logKa1 is on record as 6.93 ± 0.25. In [10], the “logKa1 (L + G ⇆ LG)” value is reported as 6.93 ± 0.25 and the “logKa2 (LG + G ⇆ LG2)” value turned out to be 5.69 ± 0.23.

For `C[n+]1c(/C=C2\Sc3ccccc3N2CCS)[se]c2ccccc21` [Compound 6, 2-((3-(2-mercaptoethyl)benzo[d]thiazol-2(3H)-ylidene)methyl)-3-methylbenzo[d][1,3]selenazol-3-ium methosulphate], the “Aggregation in aqueous buffer” value in series [1] is on record as “significantly aggregate”. Besides, the IC50 is 30.7 ± 4.07 µM in [2], 32.8 ± 3.76 µM in [4], greater than 40 µM in series [5] and greater than 40 µM in [8]. Further, the “Effect on DNA/RNA thermal stability” value in series [11] is on record as “did not show any impact”. In addition, the “∆Tm” value turned out to be 2.0 °C in series [7] and 6.9 °C in series [12]. The “log Ka (indicated by steeper slope of titration curves)” value in series [13] is no less than 7.
